{"source": "paper PMC5882690", "about": "“Mechanical characteristics of beta sheet-forming peptide hydrogels are dependent on peptide sequence, concentration and buffer composition” (Royal Society Open Science, 2018)", "key": {"[1]": {"assay": "Oscillatory amplitude sweep (storage modulus G′ in linear viscoelastic region, yield point)", "format": "physicochemical", "conditions": "for yield point YP / peptide hydrogel stiffness G′ / yield point YP (strain where G′ < 95% of original value): mean ± SD, n = 3; for peptide hydrogel stiffness G′: 140 mM ionic strength, assembled overnight; for peptide hydrogel stiffness G′ / yield point YP (strain where G′ < 95% of original value): 37°C", "experimental": "[…] The amplitude sweep tests were performed to measure storage moduli (G′) within the linear viscoelastic region. Calculations of the gel breaking points (yield points) were performed with MATLAB depending on the different peptide concentrations. Therefore, the yield strain was defined as the point where G′ is less than 95% of its original value. Oscillatory time sweep experiments were performed to study the gelation speed and hydrogel stiffness. Time sweeps up to 150 min measuring time using a frequency of 1 rad s^−1 and amplitude gamma of 0.05% were used. SAP hydrogel stiffness was determined after the equilibrium of the storage modulus (G′) was reached (t = 100 min). To determine the gelation speed, the slope of increasing storage modulus over time was calculated in the interval from t = 5 to 10 min after placing peptide solutions onto the rheometer.\nTo study SAP hydrogel stiffness within the linear viscoelastic region and gel breaking points according to the peptide concentrations, unary SAP hydrogels (300 µl) were prepared in vials at concentrations of 15 mg ml^−1, 20 mg ml^−1 and 30 mg ml^−1 by dissolving first the lyophilized peptides in 150 µl of buffer A and then adding 150 µl of peptide-specific Tris–NaCl buffer B according to table 1. Complementary SAP hydrogels (P11-13/14 and P11-28/29) were obtained by dissolving 150 µl of P11-13 in 0.1 M Tris buffer + 0.052 M NaCl pH 8 and 150 µl P11-14 in 0.055 M Tris buffer + 0.096 M NaCl pH 7.2 (table 1). The P11-13 and P11-14 solutions were then mixed (1 : 1) to obtain 300 µl of complementary SAP hydrogel with a final ionic strength of 140 mM and a pH of 7.2. All SAP hydrogels were allowed to assemble overnight.\nTo study the influence of divalent ions and different media on SAP hydrogel stiffness, gelation speed and gel breaking points (yield points), SAPs were prepared at a concentration of 15 mg ml^−1 in the different media, Tris–NaCl, Tris–MgSO4, DMEM or artificial saliva, according to table 1. All experiments were done at least in duplicate. Statistical evaluation was performed with GRAPHPAD PRISM version 6.0 based on a one-way ANOVA test followed by Tukey's multiple comparison test."}, "[2]": {"biological_target": "T1, human neutrophil elastase (Homo sapiens, UniProt P08246)", "T1 construct": "purchased Innovative Research, USA", "T1 sequence (P08246 30-267)": "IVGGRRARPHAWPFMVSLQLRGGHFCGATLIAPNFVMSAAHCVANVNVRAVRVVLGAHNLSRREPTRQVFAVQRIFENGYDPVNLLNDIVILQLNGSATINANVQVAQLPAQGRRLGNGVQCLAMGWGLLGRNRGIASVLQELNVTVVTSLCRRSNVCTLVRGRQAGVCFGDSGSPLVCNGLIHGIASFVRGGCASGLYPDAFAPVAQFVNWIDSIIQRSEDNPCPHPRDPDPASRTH", "assay": "SAP hydrogel degradation by human neutrophil elastase", "format": "in vitro ADME", "conditions": "human neutrophil elastase 100 µg ml^-1 (86 units ml^-1) in PBS, 37°C, 5% CO2, 20 mg ml^-1 P11-4, 15 mg ml^-1 others, Qubit Protein Assay, mean ± SD, n = 3", "experimental": "SAP hydrogel dissolution and degradation properties of the peptides in the presence and absence of neutrophilic elastase and microorganisms were measured by determining the peptide content of the supernatant. Therefore, SAPs were assembled in PBS at concentrations of 20 mg ml^−1 for P11-4 and 15 mg ml^−1 for P11-8, P11-13/14 and P11-28/29. The assay was performed in a 96-well plate with gel volumes of 100 µl well^−1. 86 units ml^−1 elastase (Innovative Research, USA) (100 µg ml^−1) were added to the assembled peptides in PBS solution. After 24 h incubation at 37°C and 5% CO2, 10 µl of the supernatant was sterilely removed after 24 and 168 h and measured indirectly by monomeric peptide concentration in the supernatant using the Qubit® Protein Assay (Q33211; Thermo Fisher; fluorescence at 485/590 nm) and transferred back for the remainder of the experiment allowing peptide hydrogel degradation measurement without disturbing the hydrogel to buffer fluid balance. The measurements are based on the fact that degraded peptides cause disassembly of the fibrils, as assembly rules are no longer given, resulting in an increase in monomeric SAP in solution. SAP concentrations were calculated based on respective peptide standard curves. For data analysis, SAP concentrations measured in the supernatant were calculated as a percentage of the specific starting concentrations of each peptide system. Statistical analysis was done using a two-way ANOVA followed by Sidak's multiple comparison test."}, "[3]": {"conditions": "15 mg ml^-1, Tris–NaCl, amplitude sweep"}, "[4]": {"conditions": "20 mg ml^-1, Tris–NaCl, amplitude sweep"}, "[5]": {"conditions": "30 mg ml^-1, Tris–NaCl, amplitude sweep"}}, "note": "Where a SMILES comes first, the peptide text is derived from it.", "data": [{"smiles": "CC(=O)N[C@@H](CCC(N)=O)C(=O)N[C@@H](CCC(N)=O)C(=O)N[C@@H](CCCNC(=N)N)C(=O)N[C@@H](Cc1ccccc1)C(=O)N[C@@H](CCC(=O)O)C(=O)N[C@@H](Cc1c[nH]c2ccccc12)C(=O)N[C@@H](CCC(=O)O)C(=O)N[C@@H](Cc1ccccc1)C(=O)N[C@@H](CCC(=O)O)C(=O)N[C@@H](CCC(N)=O)C(=O)N[C@@H](CCC(N)=O)C(N)=O", "note": "[P11-4, CH3CO-QQRFEWEFEQQ-NH2] (Ac-QQRFEWEFEQQ-NH2)", "values": [{"measurement": "yield point YP", "setting": "[1]; 15 mg ml^-1, Tris–MgSO4, amplitude sweep", "result": "0.05±0.03", "unit": "%"}, {"measurement": "peptide hydrogel stiffness G′", "setting": "[1]; [3]", "result": "2.1± 1.0", "unit": "kPa"}, {"measurement": "yield point YP (strain where G′ < 95% of original value)", "setting": "[1]; [3]", "result": "2.3±0.3", "unit": "%"}, {"measurement": "yield point YP", "setting": "[1]; [3]", "result": "0.45± 0.05", "unit": "%"}, {"measurement": "yield point YP", "setting": "[1]; 15 mg ml^-1, artificial saliva, amplitude sweep up to 100% strain", "result": "0.3 ± 0.02", "unit": "%"}, {"measurement": "yield point YP", "setting": "[1]; 15 mg ml^-1, serum-free DMEM, amplitude sweep up to 100% strain", "result": "2.3 ± 0.44", "unit": "%"}, {"measurement": "peptide hydrogel stiffness G′", "setting": "[1]; [4]", "result": "2.4± 0.3", "unit": "kPa"}, {"measurement": "yield point YP (strain where G′ < 95% of original value)", "setting": "[1]; [4]", "result": "1.3±0.3", "unit": "%"}, {"measurement": "peptide hydrogel stiffness G′", "setting": "[1]; [5]", "result": "4.6± 1.3", "unit": "kPa"}, {"measurement": "yield point YP (strain where G′ < 95% of original value)", "setting": "[1]; [5]", "result": "1.2±0.7", "unit": "%"}, {"measurement": "factor of increase of SAP hydrogel stiffness", "setting": "[1]; doubling SAP concentration from 15 to 30 mg ml^-1, Tris–NaCl", "result": 2}, {"measurement": "relative peptide amount in supernatant (% of peptide starting concentration)", "setting": "[2]; 1 d", "result": "14.7± 2.8", "unit": "%"}, {"measurement": "relative peptide amount in supernatant (% of peptide starting concentration)", "setting": "[2]; 7 d", "result": "12.8± 5.8", "unit": "%"}]}]}
